{"source": "patent US11613558B2", "about": "“Peptides and pharmaceutical compositions for treating eye diseases” (Yuyu Pharma, Inc., priority 2018, dated 2023)", "key": {"[1]": {"system": "rats with dry eye syndrome (extraorbital lacrimal gland excision, ELGE)", "test": "Amount of tear secretion (Schirmer test, cobalt chloride paper) in ELGE rats with dry eye syndrome", "type": "in vivo, rat", "conditions": "for Tear Volumes, Day 7 / Tear Volumes, Day 14: ELGE rats, 3 mg/ml, 5 μl/eye twice daily; for Tear Volumes, Day 7: day 7 of administration; for Tear Volumes, Day 14: day 14 of administration; for Change in amount of tear secretion as compared with the ELGE control group: 3% solution as printed, after administration for 14 days", "text": "(§1) In order to evaluate the eye protection effect on dry eye syndrome by YDE-001 to YDE-028 prepared in Example 1, a total of 320 Sprague-Dawley-type male rats (OrientBio, Seungnam, Korea) were adapted for 7 days. Thereafter, dry eye syndrome was induced in 264 test rats through extraorbital lacrimal gland excision (hereinafter, ELGE). 8 test rats without the eye abnormality were subjected to a sham operation as a control group.\n(§2) The rat was systemically anesthetized by inhaling a mixed gas of 2% to 3% of isoflurane (Hana Pharm. Co., Hwasung, Korea), 70% of N2O, and 28.6% of O2 using a rodent anesthesia machine (Surgivet, Waukesha, Wis., USA) and a ventilator (Model 687, Harvard Apparatus, Cambridge, UK). Thereafter, the extraorbital lacrimal gland located in the subdermal area above the masseter muscle and […] was excised through a transverse incision in a size of 10 mm on the anterior part of the left ear tragus. The skin was sutured by a general method. […] After 6 days from the ELGE operation, it was checked through the Schirmer test by measuring the amount of tear secretion whether dry eye syndrome had been induced. Meanwhile, each rat of the control group with the sham operation was checked for the presence and location of the extraorbital lacrimal gland through a skin incision, and the skin was then sutured without the excision thereof (FIG. 4).\n(§3) In addition, in order to evaluate the eye protection effect on dry eye syndrome by YDE-029 to YDE-043 prepared in Example 1, a total of 200 Sprague-Dawley-type male rats (OrientBio, Seungnam, Korea) were adapted for 7 days. Dry eye syndrome was induced in 165 test rats through the ELGE. 8 test rats without the eye abnormality were subjected to the sham operation as a control group. The ELGE was carried out as described above.\n(§4) For YDE-001 to YDE-028, YY-102 and the 28 YDE-series were each dissolved in physiological saline at a concentration of 3 mg/ml and administered at a dose of 5 μl/eye at 9:30 am and 3:30 pm daily for 14 days after 7 days from the ELGE operation for a total of 28 times. The DS solution was dissolved in physiological saline at a concentration of 30 mg/ml and administered at a dose of […] twice a day for 14 days after 7 days from the ELGE operation for a total of 28 times. For the sham control and the ELGE control groups, the same stimulation as the administration was applied. In order to prevent excessive eye dryness, the same volume of physiological saline was applied in the same manner in place of the test substances.\nas §4, with “Further, for YDE-029 to YDE-043,” for “For YDE-001 to YDE-028,”, “YDE-029 to YDE-043, YY-102 and” for “YDE-001 to YDE-028, YY-102 and”, “and the 15 YDE-series were” for “and the 28 YDE-series were”, “the test substances (FIG. 7).” for “the test substances.”\nAfter 6 days from the ELGE surgery, the changes in the amount of tear secretion were measured at day 7 and day 14 after the administration of YDE-001 to YDE-043. The amount of tear secretion was measured by the […] travel distance of tears absorbed by cobalt chloride paper in a size of 1×15 mm (Toyo Roshi Kaisha, Japan).\nThe cobalt chloride paper was placed in the lateral canthus of a rat for 60 seconds to absorb tears (FIG. 9). The length of the area absorbed from the corner of the cobalt chloride paper was measured with an electronic digital caliper (Mytutoyo, Tokyo, Japan) (FIG. 8)."}, "[2]": {"test": "Stability in aqueous solution under long-term storage conditions (related substances)", "type": "physicochemical", "conditions": "25° C., 75% RH", "method": "In order to confirm the stability of each test substance in an aqueous solution, […] of each sample was dissolved in 1 ml of water to a concentration of 1 mg/ml, which was then charged to a glass vial, plugged with a rubber cap, sealed with an aluminum cap, and stored under long-term storage conditions (25° C., 75% RH). The stability of the test substance was evaluated by measuring the amount of related substances at the time of one week, two weeks, four weeks, eight weeks, and twelve weeks under the long-term storage conditions."}, "[3]": {"system": "cornea of rats with dry eye syndrome (ELGE)", "test": "Corneal permeability of fluorescent dye (corneal damage) in ELGE rats with dry eye syndrome", "type": "in vivo, rat", "conditions": "5 μl/eye twice daily, day 14", "text": "as §1, §2, §3, §4\nas §4, with “Further, for YDE-029 to YDE-043,” for “For YDE-001 to YDE-028,”, “YDE-029 to YDE-043, YY-102 and” for “YDE-001 to YDE-028, YY-102 and”, “and the 15 YDE-series were” for “and the 28 YDE-series were”, “the test substances (FIG. 7).” for “the test substances.”\nAfter YDE-001 to YDE-028 were each administered to the eyes […], the changes in the corneal permeability were checked.\nIn order to measure the corneal permeability, Zolethyl 50™ (Virbac Lab., Carros, France), an animal anesthetic, was intraperitoneally injected at a dose of 25 mg/kg. Thereafter, saline containing a 1% (v/v) fluorescent solution (fluorescein sodium salt, Tokyo Kasei Kogyo Co., Tokyo, Japan) was applied to the eyes at a dose of 5 μl/eye. The eyes thus treated were closed and fixed with a tape. After 1 hour, the remaining fluorescent solution was removed using a cotton swab (FIG. 12). […]"}, "[4]": {"conditions": "Table 4, study of YDE-001 to YDE-028"}, "[5]": {"conditions": "Table 6, study of YDE-001 to YDE-028, 3 mg/ml"}, "[6]": {"conditions": "Table 5, study of YDE-029 to YDE-043"}}, "note": "Square brackets hold non-standard residues; d marks the D form. Peptide text beside a SMILES is read from it. Hyp = O=C(O)[C@@H]1C[C@@H](O)CN1", "data": [{"smiles": "CC(C)C[C@H](NC(=O)[C@@H](NC(=O)[C@H](CC(=O)O)NC(=O)[C@H](CCC(N)=O)NC(=O)CNC(=O)[C@@H]1C[C@@H](O)CN1)C(C)C)C(=O)N[C@@H](C)C(=O)NCC(=O)N1CCC[C@H]1C(=O)N[C@@H](CCCCN)C(=O)O", "note": "[YDE-015] (H-[Hyp]GQDVLAGPK-OH)", "values": [{"measurement": "Tear Volumes, Day 7", "setting": "[1]; [4]", "value": "4.03 ± 2.19", "unit": "mm^3"}, {"measurement": "Tear Volumes, Day 14", "setting": "[1]; [4]", "value": "6.65 ± 2.13", "unit": "mm^3"}, {"measurement": "Amount of related substances (after 12 weeks)", "setting": "[2]", "value": 13.05, "unit": "%"}, {"measurement": "Permeability of fluorescent dye", "setting": "[3]; [5]", "value": "15.95 ± 6.48", "unit": "%"}]}, {"smiles": "CC(C)C[C@H](NC(=O)[C@H](Cc1c[nH]c2ccccc12)NC(=O)[C@H](CC(=O)O)NC(=O)[C@H](CCC(N)=O)NC(=O)CNC(=O)[C@@H]1C[C@@H](O)CN1)C(=O)N[C@@H](C)C(=O)NCC(=O)N1CCC[C@H]1C(=O)N[C@@H](CCCCN)C(=O)O", "note": "[YDE-021] (H-[Hyp]GQDWLAGPK-OH)", "values": [{"measurement": "Tear Volumes, Day 7", "setting": "[1]; [4]", "value": "4.08 ± 1.33", "unit": "mm^3"}, {"measurement": "Tear Volumes, Day 14", "setting": "[1]; [4]", "value": "4.90 ± 1.13", "unit": "mm^3"}, {"measurement": "Change in amount of tear secretion as compared with the ELGE control group", "setting": "[1]; study of YDE-001 to YDE-028", "value": "did not show any significant changes"}, {"measurement": "Amount of related substances (after 12 weeks)", "setting": "[2]", "value": 21.33, "unit": "%"}, {"measurement": "Permeability of fluorescent dye", "setting": "[3]; [5]", "value": "37.00 ± 10.49", "unit": "%"}]}, {"smiles": "CC(C)C[C@H](NC(=O)CNC(=O)[C@H](CC(C)C)NC(=O)[C@H](CCC(N)=O)NC(=O)CNC(=O)[C@@H]1C[C@@H](O)CN1)C(=O)N[C@@H](C)C(=O)O", "note": "[YDE-041] (H-[Hyp]GQLGLA-OH)", "values": [{"measurement": "Tear Volumes, Day 7", "setting": "[1]; [6]", "value": "5.01 ± 1.26", "unit": "mm^3"}, {"measurement": "Tear Volumes, Day 14", "setting": "[1]; [6]", "value": "6.25 ± 2.15", "unit": "mm^3"}, {"measurement": "Change in amount of tear secretion as compared with the ELGE control group", "setting": "[1]; study of YDE-029 to YDE-043", "value": "did not show any significant changes"}, {"measurement": "Amount of related substances (after 12 weeks)", "setting": "[2]", "value": 3.04, "unit": "%"}, {"measurement": "Permeability of fluorescent dye", "setting": "[3]; Table 7, study of YDE-029 to YDE-043, 3 mg/ml", "value": "46.38 ± 26.65", "unit": "%"}]}, {"smiles": "CC(C)C[C@H](NC(=O)[C@H](CC(C)C)NC(=O)[C@H](CC(=O)O)NC(=O)[C@H](CCC(N)=O)NC(=O)CNC(=O)[C@@H]1C[C@@H](O)CN1)C(=O)N[C@@H](C)C(=O)NCC(=O)N1CCC[C@H]1C(=O)N[C@@H](CCCCN)C(=O)O", "note": "[YDE-017] (H-[Hyp]GQDLLAGPK-OH)", "values": [{"measurement": "Tear Volumes, Day 7", "setting": "[1]; [4]", "value": "4.00 ± 1.22", "unit": "mm^3"}, {"measurement": "Tear Volumes, Day 14", "setting": "[1]; [4]", "value": "4.89 ± 1.50", "unit": "mm^3"}, {"measurement": "Change in amount of tear secretion as compared with the ELGE control group", "setting": "[1]; study of YDE-001 to YDE-028", "value": "did not show any significant changes"}, {"measurement": "Amount of related substances (after 12 weeks)", "setting": "[2]", "value": 11.88, "unit": "%"}, {"measurement": "Permeability of fluorescent dye", "setting": "[3]; [5]", "value": "39.76 ± 7.42", "unit": "%"}]}, {"smiles": "CC(C)C[C@H](NC(=O)CNC(=O)[C@H](CCCCN)NC(=O)[C@H](CCC(N)=O)NC(=O)CNC(=O)[C@@H]1C[C@@H](O)CN1)C(=O)N[C@@H](C)C(=O)NCC(=O)N1CCC[C@H]1C(=O)N[C@@H](CCCCN)C(=O)O", "note": "[YDE-005] (H-[Hyp]GQKGLAGPK-OH)", "values": [{"measurement": "Tear Volumes, Day 7", "setting": "[1]; [4]", "value": "3.85 ± 0.93", "unit": "mm^3"}, {"measurement": "Tear Volumes, Day 14", "setting": "[1]; [4]", "value": "5.08 ± 1.91", "unit": "mm^3"}, {"measurement": "Amount of related substances (after 12 weeks)", "setting": "[2]", "value": 2.97, "unit": "%"}, {"measurement": "Permeability of fluorescent dye", "setting": "[3]; [5]", "value": "37.98 ± 11.53", "unit": "%"}]}, {"smiles": "CC(C)C[C@H](NC(=O)CNC(=O)[C@H](C)NC(=O)[C@H](CCC(N)=O)NC(=O)CNC(=O)[C@@H]1C[C@@H](O)CN1)C(=O)N[C@@H](C)C(=O)NCC(=O)N1CCC[C@H]1C(=O)N[C@@H](CCCCN)C(=O)O", "note": "[YDE-008] (H-[Hyp]GQAGLAGPK-OH)", "values": [{"measurement": "Tear Volumes, Day 7", "setting": "[1]; [4]", "value": "4.57 ± 1.25", "unit": "mm^3"}, {"measurement": "Tear Volumes, Day 14", "setting": "[1]; [4]", "value": "6.10 ± 2.36", "unit": "mm^3"}, {"measurement": "Amount of related substances (after 12 weeks)", "setting": "[2]", "value": 4.42, "unit": "%"}, {"measurement": "Permeability of fluorescent dye", "setting": "[3]; [5]", "value": "20.32 ± 11.87", "unit": "%"}]}, {"smiles": "CC(C)C[C@H](NC(=O)CNC(=O)[C@H](Cc1cnc[nH]1)NC(=O)[C@H](CCC(N)=O)NC(=O)CNC(=O)[C@@H]1C[C@@H](O)CN1)C(=O)N[C@@H](C)C(=O)NCC(=O)N1CCC[C@H]1C(=O)N[C@@H](CCCCN)C(=O)O", "note": "[YDE-004] (H-[Hyp]GQHGLAGPK-OH)", "values": [{"measurement": "Tear Volumes, Day 7", "setting": "[1]; [4]", "value": "3.42 ± 1.06", "unit": "mm^3"}, {"measurement": "Tear Volumes, Day 14", "setting": "[1]; [4]", "value": "5.19 ± 1.84", "unit": "mm^3"}, {"measurement": "Amount of related substances (after 12 weeks)", "setting": "[2]", "value": 2.11, "unit": "%"}, {"measurement": "Permeability of fluorescent dye", "setting": "[3]; [5]", "value": "35.05 ± 11.74", "unit": "%"}]}, {"smiles": "CC(C)C[C@H](NC(=O)CNC(=O)[C@H](Cc1ccc(O)cc1)NC(=O)[C@H](CCC(N)=O)NC(=O)CNC(=O)[C@@H]1C[C@@H](O)CN1)C(=O)N[C@@H](C)C(=O)NCC(=O)N1CCC[C@H]1C(=O)N[C@@H](CCCCN)C(=O)O", "note": "[YDE-013] (H-[Hyp]GQYGLAGPK-OH)", "values": [{"measurement": "Tear Volumes, Day 7", "setting": "[1]; [4]", "value": "5.27 ± 1.50", "unit": "mm^3"}, {"measurement": "Tear Volumes, Day 14", "setting": "[1]; [4]", "value": "5.49 ± 1.92", "unit": "mm^3"}, {"measurement": "Amount of related substances (after 12 weeks)", "setting": "[2]", "value": 5.92, "unit": "%"}, {"measurement": "Permeability of fluorescent dye", "setting": "[3]; [5]", "value": "32.24 ± 7.84", "unit": "%"}]}]}
